According to US20220177446A1, “ALKYNE COMPOUNDS AS IRAK INHIBITORS, PREPARATION METHODS AND MEDICINAL USES THEREOF” (Eternity Bioscience Inc., priority 2020, published 2022):
Like-named read-outs stand apart in the source and are kept apart here.

What was measured:
[1] = biological target: T1, full length human IRAK4 protein (Homo sapiens, UniProt Q9NWZ3); experiment: IRAK4 Biochemical Assay (Promega ADP-Glo IRAK4 Kinase Enzyme System); details: 3 nM enzyme, 250 μM ATP; for IC50: 2 μM MBP, 60 min at room temperature; for IRAK4 Biochemical Assay Max Inhibition (%): maximum inhibition
T1 construct: Purified full length human IRAK4 protein; purchased Signal Chem I12-10G-125
T1 sequence (Q9NWZ3 1-460): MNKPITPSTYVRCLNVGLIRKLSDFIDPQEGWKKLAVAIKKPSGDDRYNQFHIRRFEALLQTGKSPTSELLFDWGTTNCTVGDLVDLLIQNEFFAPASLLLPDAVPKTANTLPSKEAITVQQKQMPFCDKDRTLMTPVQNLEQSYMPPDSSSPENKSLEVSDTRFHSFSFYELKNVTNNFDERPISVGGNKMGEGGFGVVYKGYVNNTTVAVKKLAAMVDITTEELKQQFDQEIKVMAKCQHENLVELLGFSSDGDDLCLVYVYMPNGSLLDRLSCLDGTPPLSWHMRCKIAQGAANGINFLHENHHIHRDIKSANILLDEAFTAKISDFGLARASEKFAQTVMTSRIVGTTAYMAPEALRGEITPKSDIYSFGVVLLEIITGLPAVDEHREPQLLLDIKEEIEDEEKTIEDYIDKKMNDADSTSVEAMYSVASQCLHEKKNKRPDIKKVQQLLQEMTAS
Procedure: For the routine compound screening, an IRAK4 kinase assay was performed as follows using Promega ADP-Glo IRAK4 Kinase Enzyme System (Promega, Cat #2198-AD). Purified full length human IRAK4 protein (Signal Chem; Cat #I12-10G-125) was diluted to a concentration 6 nM in assay buffer (25 mM MOPS, pH 7.2, 12.5 mM β-glycerol-phosphate, 25 mM MgCl2, 5 mM EGTA, 2 mM EDTA, 0.0025% Brij-35, add 0.25 mM DTT to Kinase Assay Buffer prior to use) containing IRAK4 inhibitor at 2× the final concentration in 0.4% DMSO. The reaction was performed in PerkinElmer Proxiplate-384 plus white plate (Fisher Scientific, Cat #50-905-2761) and started by the addition of an equal volume of the assay buffer containing 4 μM native swine myelin basic protein (MBP) and 500 μM ATP to achieve a final concentration of 3 nM enzyme, 2 μM MBP, 250 μM ATP, 1× compound, and 0.2% DMSO. The kinase reaction was allowed to run for 60 min at room temperature (25-27° C.), then 5 μL of ADP-Glo was added to the reaction in each well followed by 40 minutes-incubation at RT. To detect converted […], 10 μL Detection Buffer was added into each well and Incubate at RT in dark for 30 minutes. Finally, luminescence was read using Tecan with 1000 ms of integration time. The luminescent signal positively correlates with ADP amount and kinase activity. Data was analyzed by GraphPad Prism and IC50 was calculated using function log(inhibitor) vs. response—Variable slope (four parameters). Percentage of inhibition was calculated as below:
(§1) % inhibition=(1−(Reading(Sample)−Reading(Negative Control))/(Reading(Positive Control)−Reading(Negative Control)))×100%
The 0% inhibition value comes from the Reading of Positive Control wells having 0 nM compound. The 100% inhibition value comes from the Reading of Negative Control wells having no IRAK4 kinase.

IRAK4 = biological target: T2, IRAK4 (Homo sapiens, UniProt Q9NWZ3); experiment: IRAK4 Human PBMC TNFα Cell Based Assay (AlphaLISA); details: TNFα measured
T2 construct: host or cells: human peripheral blood mononuclear cells (PBMCs)
T2 sequence (Q9NWZ3 1-460): T1 sequence (Q9NWZ3 1-460)
Procedure: In this assay, serially diluted compounds were incubated with 1×10^4 human peripheral blood mononuclear cells (PBMCs) from STEMCELL (Cat #70025.1) per well of 384-well plate (Fisher Scientific; 50-905-2761) and cultured with TexMACS medium (Miltenyi, Cat #130-097-196), stimulated by R848 (0.5 μM) or IL-1β (10 ng/ml). Plates were covered with lids and incubated for 4 h (R848, Fisher Scientific, Cat #NC9801605) or 24 h (IL-1β, Fisher Scientific, Cat #ENRIL1BI) at 37° C. in a humidified tissue-culture incubator. After a brief centrifugation at 1000 rpm for 5 minutes, 5 μl of culture medium was used for the measurement of the TNFα amount using TNFα (human) AlphaLISA Detection Kit (PerkinElmer, Cat #AL208C) according to manufacturer's protocol. A biotinylated anti-TNFα antibody binds to the Streptavidin-coated Donor beads while another anti-TNFα antibody is conjugated to AlphaLISA Acceptor beads. In the presence of the TNFα, the beads come into close proximity. The excitation of the Donor beads causes the release of singlet oxygen molecules that triggers a cascade of energy transfer in the Acceptor beads, resulting in a sharp peak of light emission at 615 nm. AlphaLISA assay plates were read using PHERAstar. Percentage of inhibition was calculated as below:
as §1
The 0% inhibition value comes from the Reading of Positive Control wells having 0 nM compound. The 100% inhibition value comes from the Reading of Negative Control wells having no R848 or IL-1β.

[2] = human PBMCs stimulated by IL-1β (10 ng/ml), 24 h, read-out: IRAK4 PBMC AlphaLISA IL-1β (IC50)
[3] = human PBMCs stimulated by R848 (0.5 μM), 4 h, read-out: IRAK4 PBMC AlphaLISA R848 (IC50)

| SMILES | IC50 [1] | IRAK4 Biochemical Assay Max Inhibition (%) [1] | IC50 (IRAK4; [2]) | IC50 (IRAK4; [3]) |
| --- | --- | --- | --- | --- |
| CC[C@@H]1[C@H](F)C(=O)N[C@@H]1COc1ncc(C#Cc2cn[nH]c2)c2cc(C(N)=O)c(OC)cc12 [Example 20, 4-((1H-pyrazol-4-yl)ethynyl)-1-(((2S,3S,4S)-3-ethyl-4-fluoro-5-oxopyrrolidin-2-yl)methoxy)-7-methoxyisoquinoline-6-carboxamide] | 22 nM | 100.0% | 1.7 nM | 3 nM |
| CC[C@@H]1[C@H](F)C(=O)N[C@@H]1COc1ncc(C#Cc2ccccc2)c2cc(C(N)=O)c(OC)cc12 [Example 27, 1-(((2S,3S,4S)-3-ethyl-4-fluoro-5-oxopyrrolidin-2-yl)methoxy)-7-methoxy-4-(phenylethynyl)isoquinoline-6-carboxamide] | 24 nM | 100.0% | 1.8 nM | 5.3 nM |
| CC[C@@H]1[C@H](F)C(=O)N[C@@H]1COc1ncc(C#CC(C)(C)OC)c2cc(C(N)=O)c(OC)cc12 [Example 28, 1-(((2S,3S,4S)-3-ethyl-4-fluoro-5-oxopyrrolidin-2-yl)methoxy)-7-methoxy-4-(3-methoxy-3-methylbut-1-yn-1-yl)isoquinoline-6-carboxamide] | 37 nM | 100.0% | 9.2 nM | 5.5 nM |
| CC[C@@H]1[C@H](F)C(=O)N[C@@H]1COc1ncc(C#CC(C)(C)O)c2cc(C(N)=O)c(OC(C)C)cc12 [Example 29, 1-(((2S,3S,4S)-3-ethyl-4-fluoro-5-oxopyrrolidin-2-yl)methoxy)-4-(3-hydroxyl-3-methylbut-1-yn-1-yl)-7-isopropoxyisoquinoline-6-carboxamide] | 26 nM | 100.0% | 3.5 nM | 6.7 nM |
| CC[C@@H]1[C@H](F)C(=O)N[C@@H]1COc1ccc(C#CC(C)(C)O)c2cc(C(N)=O)c(OC)cc12 [Example 31, 5-(((2S,3S,4S)-3-ethyl-4-fluoro-5-oxopyrrolidin-2-yl)methoxy)-8-(3-hydroxyl-3-methylbut-1-yn-1-yl)-3-methoxy-2-naphthamide] | 32 nM | 95.0% | 5.6 nM | 8.3 nM |

Other lines, results leading:

| IC50 [1] | IRAK4 Biochemical Assay Max Inhibition (%) [1] | IC50 (IRAK4; [2]) | IC50 (IRAK4; [3]) | SMILES |
| --- | --- | --- | --- | --- |
| 13 nM | 100.0% | 1.3 nM | 3 nM | CC[C@@H]1[C@H](F)C(=O)N[C@@H]1COc1ncc(C#C[C@@H](C)O)c2cc(C(N)=O)c(OC)cc12 [Example 19, 1-(((2S,3S,4S)-3-ethyl-4-fluoro-5-oxopyrrolidin-2-yl)methoxy)-4-((R)-3-hydroxybut-1-yn-1-yl)-7-methoxyisoquinoline-6-carboxamide] |
| 22 nM | 98.0% | 4.6 nM | 3.1 nM | CC[C@@H]1[C@H](F)C(=O)N[C@@H]1COc1ncc(C#Cc2nnn(C)n2)c2cc(C(N)=O)c(OC)cc12 [Example 21, 1-(((2S,3S,4S)-3-ethyl-4-fluoro-5-oxopyrrolidin-2-yl)methoxy)-7-methoxy-4-((2-methyl-2H-tetrazol-5-yl)ethynyl)isoquinoline-6-carboxamide] |
| 23 nM | 100.0% | 0.8 nM | 3.4 nM | CC[C@@H]1[C@H](F)C(=O)N[C@@H]1COc1ncc(C#Cc2ccncc2)c2cc(C(N)=O)c(OC)cc12 [Example 22, 1-(((2S,3S,4S)-3-ethyl-4-fluoro-5-oxopyrrolidin-2-yl)methoxy)-7-methoxy-4-(pyridin-4-ylethynyl)isoquinoline-6-carboxamide] |
| 27 nM | 103.0% | 3.9 nM | 5 nM | CC[C@@H]1[C@H](F)C(=O)N[C@@H]1COc1ncc(C#CCOC)c2cc(C(N)=O)c(OC(C)C)cc12 [Example 25, 1-(((2S,3S,4S)-3-ethyl-4-fluoro-5-oxopyrrolidin-2-yl)methoxy)-7-isopropoxy-4-(3-methoxyprop-1-yn-1-yl)isoquinoline-6-carboxamide] |
